Series [1] deals with T1, dengue virus capping enzyme (Dengue virus type 2, UniProt P29990).
T1 sequence (P29990 2492-2758): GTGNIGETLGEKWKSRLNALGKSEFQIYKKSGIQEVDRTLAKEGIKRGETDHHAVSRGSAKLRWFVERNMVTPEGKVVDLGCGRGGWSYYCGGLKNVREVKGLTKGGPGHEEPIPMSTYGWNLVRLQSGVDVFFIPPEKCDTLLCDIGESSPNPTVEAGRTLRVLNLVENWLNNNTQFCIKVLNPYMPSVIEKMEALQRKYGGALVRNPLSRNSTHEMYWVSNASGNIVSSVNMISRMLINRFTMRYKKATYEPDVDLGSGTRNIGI
In words: biochemical. The format is binding, dengue virus type 2 (strain 16681).

The target in series [2] is yellow fever virus capping enzyme (Yellow fever virus, UniProt P03314). Nature of the series: biochemical. The format is binding, yellow fever virus (strain 17D). Conditions: read-out: FP_YF_KI_AVG_YF_M.
yellow fever virus capping enzyme, sequence (P03314 2507-2774 limits assumed): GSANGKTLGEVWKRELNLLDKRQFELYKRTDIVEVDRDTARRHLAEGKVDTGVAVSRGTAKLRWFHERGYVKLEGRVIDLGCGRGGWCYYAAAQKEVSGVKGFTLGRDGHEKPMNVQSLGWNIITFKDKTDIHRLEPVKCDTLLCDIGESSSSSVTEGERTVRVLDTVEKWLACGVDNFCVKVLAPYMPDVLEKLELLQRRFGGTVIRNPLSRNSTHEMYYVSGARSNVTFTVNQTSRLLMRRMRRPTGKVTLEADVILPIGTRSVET
In series [3] the test system is dengue type 2 virus subgenomic replicon (BHK-pD2hRucPac). In words: Antiviral (replicon) assay, Renilla luciferase. The format is cell-based. The conditions noted are these: Table 2-1; read-out: Replicon Assay_EC50_M. On the technique in general: Replicon systems follow genome replication, usually without infectious particles.
The test system of the next series is BHK-pD2hRucPac cells. In words: Cell viability (CellTiter-Glo) in replicon assay. The conditions noted are these: read-out: Replicon Assay_CC50_M; Table 2-1. In general terms: In ATP-based viability assays light output follows the ATP content of the culture.

Several values for one entry are separate records, joined by “and”; a condition that tells them apart may be missing. Identical values can stand only once. Like-named read-outs stand apart in the source and are kept apart here. Bounds are passed on as bounds.

On to `O=C(O)CN1C(=O)C(=Cc2cc(Cl)cc(Cl)c2O)SC1=S` [BG225], for which the Ki in series [1] (read-out: FP_DEN_Ki_AVG_DEN_M) and in series [2] was not below 100 µM throughout.
As for `CCc1ccc(C=C2SC(=S)N(CCC(=O)Nc3ccccc3C(=O)O)C2=O)cc1` [BG274], the EC50 in series [3] came to 63 µM. The CC50 in the series with BHK-pD2hRucPac cells was 60 µM.
In the case of `CC(C(=O)O)N1C(=O)C(=Cc2ccc(Cl)cc2Cl)SC1=S` (stereo not drawn) [BG133], the Ki in series [1] (read-out: FP_DEN_Ki_AVG_DEN_M) came to 7 µM; in series [2], 14 µM. For the same molecule, the EC50 in series [3] stood at 126 µM. For the same molecule, the CC50 in the series on BHK-pD2hRucPac cells was 77 µM.
As to `COc1ccccc1/C=C1\SC(=O)N(CC(=O)O)C1=O` [BG215], in series [1] (read-out: FP_DEN_Ki_AVG_DEN_M), the Ki is 866 µM. In addition, the CC50 in the series with BHK-pD2hRucPac cells is 100 µM.
On to `O=C1C(=Cc2cccc(Br)c2)SC(=S)N1CN1CCCCC1` [BG21], for which the Ki in series [1] (read-out: FP_DEN_Ki_AVG_DEN_M) came out at 42 µM; in series [2] it was 27 µM.
Regarding `NC(=O)c1c(NC(=O)CN2C(=O)C(=Cc3ccc(Cl)cc3Cl)SC2=S)sc2c1CCCC2` [BG265], the Ki in series [1] (read-out: FP_DEN_Ki_AVG_DEN_M) turned out to be 46 µM.
Molecule `O=C(O)CN1C(=O)/C(=C/c2ccc(Cl)cc2Cl)SC1=S` [BG-319] displayed a Ki in series [1] (Ki (GTP displacement)) of 24 µM.
`O=C(O)CN1C(=O)C(=Cc2cccc(Cl)c2Cl)SC1=S` [BG227]: the results for the Ki in series [1] (read-out: FP_DEN_Ki_AVG_DEN_M) and in series [2] were 27 µM and 34 µM, respectively.
With `COc1ccc(OC)c(/C=C2\SC(=S)N(CC(=O)O)C2=O)c1` [BG-309], the Ki in series [1] (read-out: FP_DEN_Ki_AVG_DEN_M) and in series [2] was not below 100 µM each time. In the series on BHK-pD2hRucPac cells, the CC50 was 100 µM.
For `COc1cccc(/C=C2\SC(=S)N(CC(=O)O)C2=O)c1OC` [BG311], the Ki in series [2] was determined as 34 µM. The CC50 with BHK-pD2hRucPac cells was determined as 100 µM.
With `O=C(O)CN1C(=O)/C(=C/c2ccccc2)SC1=S` [BG-325], the Ki in series [1] (read-out: FP_DEN_Ki_AVG_DEN_M) and in series [2] was not below 100 µM each time.
In the case of `O=C1NC(=O)C(=Cc2ccccc2[N+](=O)[O-])S1` [BG146], the Ki in series [1] (read-out: FP_DEN_Ki_AVG_DEN_M) was found to be 55 µM; in series [2] it was 66 µM.
As to `O=C(O)c1ccccc1/C=C1\SC(=S)N(c2cccc(C(F)(F)F)c2)C1=O` [BG129], the Ki is 11 µM in series [1] (read-out: FP_DEN_Ki_AVG_DEN_M) and 19 µM in series [2]. In addition, the CC50 in the series with BHK-pD2hRucPac cells is 47 µM.
Regarding `O=C(O)CCN1C(=O)C(=Cc2ccc(F)cc2)SC1=S` [BG-321], the Ki in series [1] (read-out: FP_DEN_Ki_AVG_DEN_M) and in series [2] was not below 100 µM throughout.
As to `O=C(O)CN1C(=O)C(=Cc2ccc(Cl)cc2Cl)SC1=S` [BG229], the Ki in series [1] (read-out: FP_DEN_Ki_AVG_DEN_M) stood at 24 µM; in series [2], 25 µM.
On to `O=C(O)CN1C(=O)/C(=C/c2ccc(F)c(Br)c2)SC1=S` [BG224], for which the Ki in series [1] (read-out: FP_DEN_Ki_AVG_DEN_M) and in series [2] was 27 µM throughout.
As for `O=C(O)CN1C(=O)/C(=C/c2ccc(Cl)c(Cl)c2)SC1=S` [BG228], the Ki turned out to be 11 µM in series [1] (read-out: FP_DEN_Ki_AVG_DEN_M) and 16 µM in series [2].
Turning to `CCN(CC)c1ccc(N2C(=O)/C(=C/c3ccc(C(=O)O)cc3)SC2=S)cc1` [BG125], the Ki in series [1] (read-out: FP_DEN_Ki_AVG_DEN_M) turned out to be 2 µM; in series [2], 3 µM. Besides, the CC50 in the series with BHK-pD2hRucPac cells came out at 15 µM.
Take `O=C(O)CCN1C(=O)C(=Cc2ccccc2)SC1=S` [BG-327]: the Ki in series [1] (read-out: FP_DEN_Ki_AVG_DEN_M) and in series [2] was not below 100 µM in each case.
As to `O=C(O)CCN1C(=O)/C(=C/c2ccccc2F)SC1=S` [BG-329], the Ki in series [1] (read-out: FP_DEN_Ki_AVG_DEN_M) and in series [2] was not below 100 µM in each case.
`CCc1ccc(/C=C2\SC(=S)N(CCC(=O)Nc3ccc(C(=O)O)cc3)C2=O)cc1` [BG273]: the Ki in series [1] (read-out: FP_DEN_Ki_AVG_DEN_M) came out at 4 µM.
For the molecule `O=C1NC(=O)C(=Cc2cc3c(cc2[N+](=O)[O-])OCO3)S1` [BG145], the Ki in series [1] (read-out: FP_DEN_Ki_AVG_DEN_M) came to 8 µM; in series [2], 9 µM.
Take `COc1ccccc1C=C1SC(=S)N(CCC(=O)O)C1=O` [BG-310]: the Ki in series [2] came to 44 µM. In addition, the CC50 in the series on BHK-pD2hRucPac cells stood at 100 µM.
In the case of `O=C(O)CN1C(=O)C(=Cc2cc(Br)ccc2F)SC1=S` [BG230], the Ki in series [1] (read-out: FP_DEN_Ki_AVG_DEN_M) is 17 µM; in series [2], 23 µM.
In the case of `O=C(O)CCN1C(=O)C(=Cc2ccc(-c3ccc(Br)cc3)o2)SC1=S` [BG286], the Ki in series [1] (read-out: FP_DEN_Ki_AVG_DEN_M) is not below 100 µM.
For the molecule `O=C(O)CCN1C(=O)/C(=C/c2ccc(-c3ccccc3Cl)o2)SC1=S` [BG290], the Ki in series [1] (read-out: FP_DEN_Ki_AVG_DEN_M) was not below 100 µM.
Consider `O=C(O)CN1C(=O)C(=CC=Cc2ccccc2)SC1=S` [BG326], for which the Ki in series [1] (read-out: FP_DEN_Ki_AVG_DEN_M) is 77 µM; in series [2] it was not below 100 µM.
In the case of `O=C(CCN1C(=O)/C(=C/c2ccccc2Cl)SC1=S)Nc1ccccc1C(=O)O` [BG289], the EC50 in series [3] is 92 µM. For the same molecule, the CC50 with BHK-pD2hRucPac cells came out at 79 µM.
With `CC(C)c1ccc(C=C2SC(=S)N(CCC(=O)O)C2=O)cc1` [BG183], the Ki in series [1] (read-out: FP_DEN_Ki_AVG_DEN_M) turned out to be 12 µM; in series [2] it was 13 µM.
Turning to `O=C(CCN1C(=O)/C(=C/c2cccc(Br)c2)SC1=S)Nc1ccccc1C(=O)O` [BG291], the EC50 in series [3] came out at 75 µM. The CC50 with BHK-pD2hRucPac cells stood at 68 µM.
Molecule `CC(C)c1ccc(/C=C2\SC(=S)N(CCC(=O)O)C2=O)cc1` [BG-322] returned a Ki in series [1] (Ki (GTP displacement)) of 12 µM.
Turning to `CC(C)(C)c1ccc(CC2SC(=S)N(CCC(=O)O)C2=O)cc1` (racemic) [BG296], in series [1] (read-out: FP_DEN_Ki_AVG_DEN_M), the Ki came out at 10 µM. Moreover, in series [3], the EC50 came out at 167 µM. Besides, the CC50 with BHK-pD2hRucPac cells is 105 µM.
`O=C(O)CN1C(=O)C(=Cc2cc(Br)cc(Cl)c2O)SC1=S` [BG222]: the Ki in series [1] (read-out: FP_DEN_Ki_AVG_DEN_M) and in series [2] was not below 100 µM each time.
Consider `O=C(O)CCN1C(=O)/C(=C/c2ccc(-c3ccc(Cl)cc3Cl)o2)SC1=S` [BG177], for which the Ki in series [2] worked out at 1 µM. Moreover, the EC50 in series [3] is 30 µM and 26 µM. Further, the CC50 with BHK-pD2hRucPac cells is 30 µM and 31 µM.
On to `COc1cc(C=C2SC(=S)NC2=O)ccc1OS(=O)(=O)c1ccccc1[N+](=O)[O-]` [BG141], for which, in series [2], the Ki came to 2 µM. The EC50 in series [3] was found to be 24 µM. For the same molecule, the CC50 in the series on BHK-pD2hRucPac cells worked out at 27 µM.
In turn, `O=C(O)CN1C(=O)/C(=C/c2cccc(Cl)c2Cl)SC1=S` [BG-317] came in with a Ki in series [1] (Ki (GTP displacement)) of 27 µM.
For the molecule `O=C(O)CCN1C(=O)C(=Cc2ccc(-c3ccccc3)o2)SC1=S` [BG292], the Ki in series [1] (read-out: FP_DEN_Ki_AVG_DEN_M) is not below 100 µM.
As to `CCc1ccc(C=C2SC(=O)NC2=O)cc1` [BG144], the values for the Ki in series [1] (read-out: FP_DEN_Ki_AVG_DEN_M) and in series [2] were 20 µM and 38 µM, respectively.
For `O=C(O)CCN1C(=O)C(=Cc2ccc(Cl)c(Cl)c2)SC1=S` [BG-328], the Ki in series [1] (read-out: FP_DEN_Ki_AVG_DEN_M) worked out at 14 µM; in series [1] (read-out: Ki (GTP displacement)), 13.6 µM; in series [2] it was 12 µM.
Turning to `O=C(O)CN1C(=O)SC(=Cc2ccc(Cl)cc2)C1=O` [BG226], the Ki in series [2] was not below 100 µM.
As for `COc1ccc(N2C(=O)/C(=C/c3cc([N+](=O)[O-])cc(OC)c3O)SC2=S)cc1` [BG140], the Ki in series [2] turned out to be 2 µM. Moreover, the EC50 in series [3] was 13 µM. Besides, in the series on BHK-pD2hRucPac cells, the CC50 came to 23 µM.
For `O=C(O)CCN1C(=O)/C(=C/c2ccc(-c3ccc(Cl)c(Cl)c3)o2)SC1=S` [BG281], the Ki in series [1] (read-out: FP_DEN_Ki_AVG_DEN_M) came out at 2 µM.
`O=C(O)CCN1C(=O)/C(=C/c2ccc(-c3cccc(Cl)c3)o2)SC1=S` [BG188]: the EC50 in series [3] came to 51 µM. The CC50 in the series on BHK-pD2hRucPac cells came to 51 µM.
With `O=C(O)CN1C(=O)/C(=C/c2ccc(Cl)c(Cl)c2)SC1=S` [BG-318], the Ki in series [1] (Ki (GTP displacement)) is 11 µM and 11.3 µM.
As to `COC(=O)CCN1C(=O)C(=Cc2ccc(Cl)cc2Cl)SC1=S` [BG-332], the Ki in series [1] (read-out: FP_DEN_Ki_AVG_DEN_M) and in series [2] was not below 100 µM throughout.
For `CC(C)(C)c1ccc(C=C2SC(=S)N(CCC(=O)NS(C)(=O)=O)C2=O)cc1` [BG297], the Ki in series [1] (read-out: FP_DEN_Ki_AVG_DEN_M) was found to be 3 µM. Besides, the EC50 in series [3] was found to be 78 µM. In addition, the CC50 in the series on BHK-pD2hRucPac cells came to 86 µM.
For `CC(C)(C)c1ccc(/C=C2\SC(=S)N(CCC(=O)O)C2=O)cc1` [BG184], the EC50 in series [3] was determined as 46 µM. The CC50 with BHK-pD2hRucPac cells turned out to be 61 µM.
For `O=C(O)CCCN1C(=O)/C(=C/c2ccc(Cl)cc2Cl)SC1=S` [BG-331], the Ki worked out at 15 µM in series [1] (read-out: FP_DEN_Ki_AVG_DEN_M) and 25 µM in series [2].

These data come from US9206412B2, “Thioxothiazolidine inhibitors” (Colorado State University Research Foundation, priority 2012, dated 2015).
